According to the NIST ThermoML archive (doi:10.1007/s10765-007-0169-z):

Experiments:
[1] = for surface tension liquid-gas: Drop volume; for mass density: 101.33 kPa, Liquid, Pycnometric method
[2] = xn = mol fraction of the nth substance listed; settings: Drop volume

CCCCCl [1-chlorobutane]
[1]
Settings | mass density [kg/m3] | surface tension liquid-gas [mN/m]
298.15 K | 880.69 | 23.29
313.15 K | – | 21.58

CCC(C)Cl (configuration not stated) [2-chlorobutane] + C1CCOC1
[2]
Settings | surface tension liquid-gas [mN/m]
298.15 K, x2 = 0.0427 | 21.96
298.15 K, x2 = 0.1259 | 22.24
298.15 K, x2 = 0.2478 | 22.71
298.15 K, x2 = 0.3589 | 23.19
298.15 K, x2 = 0.4628 | 23.68
298.15 K, x2 = 0.5654 | 24.19
298.15 K, x2 = 0.6678 | 24.74
298.15 K, x2 = 0.7513 | 25.22
298.15 K, x2 = 0.84 | 25.77
298.15 K, x2 = 0.9208 | 26.35
298.15 K, x2 = 0.9701 | 26.76
313.15 K, x2 = 0.0581 | 19.7
313.15 K, x2 = 0.124 | 20.12
313.15 K, x2 = 0.2442 | 20.84
313.15 K, x2 = 0.3595 | 21.47
313.15 K, x2 = 0.4761 | 22.05
313.15 K, x2 = 0.573 | 22.53
313.15 K, x2 = 0.6654 | 23
313.15 K, x2 = 0.7524 | 23.45
313.15 K, x2 = 0.836 | 23.94
313.15 K, x2 = 0.9209 | 24.49
313.15 K, x2 = 0.9663 | 24.81

CC(C)(C)Cl [2-chloro-2-methylpropane] + C1CCOC1
[2]
Settings | surface tension liquid-gas [mN/m]
298.15 K, x2 = 0.0664 | 19.32
298.15 K, x2 = 0.1332 | 19.74
298.15 K, x2 = 0.2532 | 20.51
298.15 K, x2 = 0.3652 | 21.26
298.15 K, x2 = 0.4851 | 22.11
298.15 K, x2 = 0.5768 | 22.81
298.15 K, x2 = 0.6804 | 23.66
298.15 K, x2 = 0.7747 | 24.51
298.15 K, x2 = 0.8446 | 25.2
298.15 K, x2 = 0.9372 | 26.23
298.15 K, x2 = 0.9656 | 26.58
313.15 K, x2 = 0.0427 | 16.98
313.15 K, x2 = 0.1236 | 17.22
313.15 K, x2 = 0.1853 | 17.54
313.15 K, x2 = 0.2856 | 18.22
313.15 K, x2 = 0.3852 | 18.94
313.15 K, x2 = 0.5033 | 19.9
313.15 K, x2 = 0.6055 | 20.75
313.15 K, x2 = 0.6963 | 21.55
313.15 K, x2 = 0.794 | 22.48
313.15 K, x2 = 0.89 | 23.53
313.15 K, x2 = 0.9446 | 24.25

CCCCCl [1-chlorobutane] + C1CCOCC1
[2]
Settings | surface tension liquid-gas [mN/m]
298.15 K, x2 = 0.0421 | 23.43
298.15 K, x2 = 0.1082 | 23.65
298.15 K, x2 = 0.2121 | 24.02
298.15 K, x2 = 0.3174 | 24.41
298.15 K, x2 = 0.4245 | 24.82
298.15 K, x2 = 0.5222 | 25.21
298.15 K, x2 = 0.6243 | 25.63
298.15 K, x2 = 0.7209 | 26.04
298.15 K, x2 = 0.8105 | 26.43
298.15 K, x2 = 0.9103 | 26.88
298.15 K, x2 = 0.9655 | 27.13
313.15 K, x2 = 0.0319 | 21.69
313.15 K, x2 = 0.1092 | 21.95
313.15 K, x2 = 0.208 | 22.29
313.15 K, x2 = 0.3137 | 22.66
313.15 K, x2 = 0.4209 | 23.04
313.15 K, x2 = 0.5149 | 23.39
313.15 K, x2 = 0.6199 | 23.8
313.15 K, x2 = 0.717 | 24.19
313.15 K, x2 = 0.8126 | 24.59
313.15 K, x2 = 0.9067 | 24.99
313.15 K, x2 = 0.965 | 25.24

C1CCOCC1 [tetrahydropyran]
[1]
Settings | mass density [kg/m3] | surface tension liquid-gas [mN/m]
298.15 K | 878.81 | 27.29
313.15 K | – | 25.39

CC(C)CCl [1-chloro-2-methylpropane]
[1]
Settings | mass density [kg/m3] | surface tension liquid-gas [mN/m]
298.15 K | 871.13 | 21.8
313.15 K | – | 19.18

CCC(C)Cl (configuration not stated) [2-chlorobutane] + C1CCOCC1
[2]
Settings | surface tension liquid-gas [mN/m]
298.15 K, x2 = 0.04 | 22.05
298.15 K, x2 = 0.1057 | 22.38
298.15 K, x2 = 0.2133 | 22.88
298.15 K, x2 = 0.3195 | 23.39
298.15 K, x2 = 0.4166 | 23.88
298.15 K, x2 = 0.5188 | 24.44
298.15 K, x2 = 0.6151 | 24.99
298.15 K, x2 = 0.7111 | 25.56
298.15 K, x2 = 0.8098 | 26.15
298.15 K, x2 = 0.9438 | 26.95
298.15 K, x2 = 0.9845 | 27.2
313.15 K, x2 = 0.0355 | 19.56
313.15 K, x2 = 0.1006 | 20.01
313.15 K, x2 = 0.2177 | 20.83
313.15 K, x2 = 0.3192 | 21.5
313.15 K, x2 = 0.4243 | 22.14
313.15 K, x2 = 0.5166 | 22.66
313.15 K, x2 = 0.5931 | 23.07
313.15 K, x2 = 0.7193 | 23.76
313.15 K, x2 = 0.8156 | 24.31
313.15 K, x2 = 0.9057 | 24.85
313.15 K, x2 = 0.991 | 25.34
